According to patent US9695155B2, “Herbicidal substituted pyrimidinyloxy benzene compounds” (E. I. DU PONT DE NEMOURS AND COMPANY, priority 2013, dated 2017):

How the values were obtained:
chamomile = test: Test D preemergence; format: in vivo, Matricaria inodora; details: scale 0-100
Text: (§1) Seeds of plant species selected from bluegrass (annual bluegrass, Poa annua), blackgrass (Alopecurus myosuroides), canarygrass (littleseed canarygrass, Phalaris minor), chickweed (common chickweed, Stellaria media), galium (catchweed bedstraw, Galium aparine), bromegrass, downy (downy bromegrass, Bromus tectorum), field poppy (Papaver rhoeas), field violet (Viola arvensis), green foxtail (Setaria viridis), deadnettle (henbit deadnettle, Lamium amplexicaule), Italian ryegrass (Lolium multiflorum), kochia (Kochia scoparia), lambsquarters (Chenopodium album), oilseed rape (Brassica napus), pigweed (Amaranthus retroflexus), chamomile (scentless chamomile, Matricaria inodora), Russian thistle (Salsola kali), speedwell (bird's-eye speedwell, Veronica persica), spring barley (Hordeum vulgare), spring wheat (Triticum aestivum), wild buckwheat (Polygonum convolvulus), wild mustard (Sinapis arvensis), wild oat (Avena fatua), wild radish (Raphanus raphanistrum), windgrass (Apera spica-venti), winter barley (Hordeum vulgare), and winter wheat (Triticum aestivum) were planted into a silt loam soil and treated preemergence with test chemicals formulated in a non-phytotoxic solvent mixture which included a surfactant.
(§2) At the same time, these species were planted in pots containing Redi-Earth® planting medium (Scotts Company, 14111 Scottslawn Road, Marysville, Ohio 43041) comprising spaghnum peat moss, vermiculite, wetting agent and starter nutrients and treated with postemergence applications of the test chemicals formulated in the same manner. Plants ranged in height from 2 to 18 cm (1- to 4-leaf stage). Treated plants and controls were maintained in a controlled growth environment for 7 to 21 days after which time all species were compared to controls and visually evaluated. Plant response ratings, summarized in Table D, are based on a scale of 0 to 100 where 0 is no effect and 100 is complete control. A dash (-) response means no test result.

spring barley = test: Test D preemergence; format: in vivo, Hordeum vulgare
How it was run: (§3)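 Seeds sown in silt loam soil got preemergence sprays; plants in peat/vermiculite potting medium were sprayed postemergence at 2–18 cm (1- to 4-leaf stage). Chemicals were formulated in a non-phytotoxic solvent mixture with surfactant. After 7 to 21 days in a controlled environment, injury was rated visually versus controls, 0 (no effect) to 100 (complete control).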

winter barley = test: Test D preemergence; format: in vivo, Hordeum vulgare
How it was run: as §3

spring wheat [1] = test: Test D preemergence; format: in vivo, Triticum aestivum
How it was run: as §3

winter wheat [2] = test: Test D preemergence; format: in vivo, Triticum aestivum
How it was run: as §3

wild oat = test: Test D preemergence; format: in vivo, Avena fatua
Text: as §1, §2

deadnettle = test: Test D postemergence; format: in vivo, Lamium amplexicaule
How it was run: as §3

spring wheat [3] = test: Test D postemergence; format: in vivo, Triticum aestivum
How it was run: as §3

winter wheat [4] = test: Test D postemergence; format: in vivo, Triticum aestivum
How it was run: as §3

wild buckwheat = test: Test D postemergence; format: in vivo, Polygonum convolvulus
How it was run: as §3

[5] = 16 g ai/ha, scale 0 (no effect) to 100 (complete control)
[6] = 31 g ai/ha, scale 0 (no effect) to 100 (complete control)
[7] = 31 g ai/ha, scale 0 to 100 (0 no effect, 100 complete control)
[8] = 62 g ai/ha, scale 0 to 100 (0 no effect, 100 complete control)
[9] = 125 g ai/ha, scale 0 to 100 (0 no effect, 100 complete control)
[10] = 250 g ai/ha, scale 0 to 100 (0 no effect, 100 complete control)

Clc1cnc(Oc2ccccc2-n2cc(Cl)cn2)nc1 [Compound 3]
65: Plant response rating, Wheat, Winter (winter wheat [4]; 16 g ai/ha, scale 0-100)
10: Plant response rating, Barley, Winter (winter barley; 125 g ai/ha, scale 0-100) | Plant response rating, Oat, Wild (wild oat; 250 g ai/ha, scale 0-100) | Plant response rating, Deadnettle (deadnettle; 16 g ai/ha, scale 0-100) | Plant response rating, Deadnettle (deadnettle; [7]) | Plant response rating, Deadnettle (deadnettle; [8]) | Plant response rating, Deadnettle (deadnettle; [9]) | Plant response rating, Buckwheat, Wild (wild buckwheat; Postemergence, 31 g ai/ha, scale 0 to 100 (0 no effect, 100 complete control))
20: Plant response rating, Chamomile (chamomile; 125 g ai/ha) | Plant response rating, Barley, Winter (winter barley; 250 g ai/ha, scale 0-100) | Plant response rating, Deadnettle (deadnettle; [10])
0: Plant response rating, Chamomile (chamomile; 31 g ai/ha) | Plant response rating, Chamomile (chamomile; 62 g ai/ha) | Plant response rating, Barley, Spring (spring barley; [5]) | Plant response rating, Barley, Spring (spring barley; 31 g ai/ha, scale 0-100) | Plant response rating, Barley, Spring (spring barley; 62 g ai/ha, scale 0-100) | Plant response rating, Barley, Spring (spring barley; 125 g ai/ha, scale 0-100) | Plant response rating, Barley, Spring (spring barley; 250 g ai/ha, scale 0-100) | Plant response rating, Barley, Winter (winter barley; [5]) | Plant response rating, Barley, Winter (winter barley; 31 g ai/ha, scale 0-100) | Plant response rating, Barley, Winter (winter barley; 62 g ai/ha, scale 0-100) | Plant response rating, Wheat, Spring (spring wheat [1]; [5]) | Plant response rating, Wheat, Spring (spring wheat [1]; [6]) | Plant response rating, Wheat, Spring (spring wheat [1]; 62 g ai/ha, scale 0-100) | Plant response rating, Wheat, Spring (spring wheat [1]; 125 g ai/ha, scale 0-100) | Plant response rating, Wheat, Spring (spring wheat [1]; 250 g ai/ha, scale 0-100) | Plant response rating, Wheat, Winter (winter wheat [2]; [5]) | Plant response rating, Wheat, Winter (winter wheat [2]; [6]) | Plant response rating, Wheat, Winter (winter wheat [2]; 62 g ai/ha, scale 0-100) | Plant response rating, Wheat, Winter (winter wheat [2]; 125 g ai/ha, scale 0-100) | Plant response rating, Wheat, Winter (winter wheat [2]; 250 g ai/ha, scale 0-100) | Plant response rating, Oat, Wild (wild oat; [5]) | Plant response rating, Oat, Wild (wild oat; 31 g ai/ha, scale 0-100) | Plant response rating, Oat, Wild (wild oat; 62 g ai/ha, scale 0-100) | Plant response rating, Oat, Wild (wild oat; 125 g ai/ha, scale 0-100) | Plant response rating, Wheat, Spring (spring wheat [3]; [7]) | Plant response rating, Wheat, Spring (spring wheat [3]; [8]) | Plant response rating, Wheat, Spring (spring wheat [3]; [9]) | Plant response rating, Wheat, Spring (spring wheat [3]; [10]) | Plant response rating, Wheat, Winter (winter wheat [4]; [7]) | Plant response rating, Wheat, Winter (winter wheat [4]; [8]) | Plant response rating, Wheat, Winter (winter wheat [4]; [9]) | Plant response rating, Wheat, Winter (winter wheat [4]; [10])
50: Plant response rating, Buckwheat, Wild (wild buckwheat; Postemergence, 62 g ai/ha, scale 0 to 100 (0 no effect, 100 complete control)) | Plant response rating, Buckwheat, Wild (wild buckwheat; postemergence, 16 g ai/ha, scale 0 to 100, 0 no effect, 100 complete control)
60: Plant response rating, Wheat, Spring (spring wheat [3]; 16 g ai/ha, scale 0-100) | Plant response rating, Buckwheat, Wild (wild buckwheat; Postemergence, 125 g ai/ha, scale 0 to 100 (0 no effect, 100 complete control))
80: Plant response rating, Buckwheat, Wild (wild buckwheat; Postemergence, 250 g ai/ha, scale 0 to 100 (0 no effect, 100 complete control))
40: Plant response rating, Chamomile (chamomile; 250 g ai/ha)
